# Laboratory results taken from PubChem BioAssay AID2060601 (Molecular Pharmacology Branch, DTP, NCI, 2025).
# Test system: 874868-142-R-J2-PDC complex spheroids, growth % test/control
# Test: Anticancer human tumor 874868-142-R-J2-PDC patient-derived head and neck squamous carcinoma cell line growth inhibition [CLK]
# Details: for IC50: curve of first compound; for viability, T/C: stronger effect = lower value
# Source text: A high-throughput screen of multi-cell type tumor spheroids was designed to identify active combinations of […] and targeted small molecules. Complex spheroids include a stromal component modeled by human endothelial cells (HUVEC) and fibroblasts modeled by human mesenchymal stem cells (MSCs). The concentration ranges selected for each drug and investigational agent were based upon clinically achievable concentrations if the clinical Cmax of the agent was known.
# Compounds. The drugs and investigational agents: cirtuvivint (SM08502; NSC835563), CC-671 (NSC850746), vemurafenib (NSC761431), tapotoclax (NSC804041), sotorasib (NSC818433), adagrasib (NSC831453), MRTX-1133 (NSC836407), BAY2416964 (NSC825713), copanlisib (NSC816437), inavolisib (NSC800729), abemaciclib (NSC768073), osimertinib (NSC779217), entinostat (NSC756642), eltanexor (KPT-8602, NSC794443), venetoclax (NSC766270), ceralasertib (NSC777638), bortezomib (NSC756655), olaparib (NSC753686), talazoparib (NSC767125), alisertib (NSC759677), peposertib (NSC802822), gemcitabine (NSC613327), 5-fluorouracil (NSC19893), SN-38 (NSC673596), oxaliplatin (NSC266046), paclitaxel (NSC125973), and doxorubicin (NSC123127), were obtained from the National Cancer Institute (NCI) Developmental Therapeutics Program Chemical Repository. The FDA-approved anticancer drug set is available from the Developmental Therapeutics Program at https://dtp.cancer.gov/organization/dscb/obtaining/available plates.htm. […] The stock solutions were prepared in dimethyl sulfoxide (DMSO, Sigma-Aldrich, St. Louis, MO, cat. D2650), except for the platinum complexes which were prepared in saline (Quality Biological, Gaithersburg, MD, cat. 114-055-101), at 800-fold the tested concentration and stored at -70 degrees C prior to their use. All drugs and investigational agents were tested over a range starting from a high concentration at or near the clinical Cmax and decreasing in half-log increments. If the clinical Cmax for an agent had not been determined, the highest concentration tested was 10 microM.
# Cell Culture. All cells were maintained in an incubator at 37 degrees C and 5% CO2 with 95% humidity. The PDC lines were cultured according to standard operating procedures established by the NCI PDMR. Briefly, all PDCs were thawed and cultured in Matrigel-coated flasks prepared with a working solution of 1X Ham's F-12 nutrient mix, without supplementation (Invitrogen, Waltham, MA, cat. 11765054), 100 U/mL penicillin-streptomycin (Invitrogen, cat. 15140122), and 2.5% Matrigel (Corning Inc., Corning, NY, cat. 354248) for the first three passages. The 947758-054-R-J2-PDC line was cultured in 6B/Colon 1A media, which includes advanced DMEM/F-12 (Thermo Fisher Scientific, cat. 12634028), 10 mM HEPES (Thermo Fisher Scientific, cat. 15630080), 1X GlutaMAX supplement (Thermo Fisher Scientific, cat. 35050061), 0.1 mg/mL primocin (InvivoGen, cat. ant-pm-2), 10% defined fetal bovine serum, heat inactivated (HyClone Laboratories Inc., cat. SH30070.03HI), 1.25 mM N-Acetyl-L-cysteine (Sigma-Aldrich, cat. A9165), 10 mM nicotinamide (Sigma-Aldrich, cat. N0636), 1X B-27 supplement (Thermo Fisher Scientific, cat. 17504044), 1X N-2 supplement (Thermo Fisher Scientific, cat. 17502048), and 10 microM Y-27632 dihydrochloride (Tocris Bioscience, cat. 1254). The 876862-298-R-J1-PDC was cultured in 6E media, which includes all 6B/Colon 1A media components plus 50% L-WRN conditioned media (ATCC, cat. CRL-3276), 50 ng/mL recombinant human EGF recombinant protein (hEGF; Thermo Fisher Scientific, cat. PHG0311), 10 ng/mL recombinant human fibroblast growth factor 10 (hGFG-10; PeproTech, cat. 100-26), 1 ng/mL recombinant human fibroblast growth factor 2 (hFGF-2; PeproTech, cat. 100-18B), and 1 µM prostaglandin E2 (PGE2; Tocris, cat. 2296). The 227483-062-R1-J1-PDC line was cultured in Panc media, containing all 6E components except hFGF-2, with the addition of 500 nM SB-431542 (Selleckchem, cat. S1067) and 10 nM gastrin (Tocris, cat. 3006). […]
# 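Also: spheroids exposed to the compounds for 7 days.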
smiles,measurement,setting,value
C=CC(=O)N1CCN(c2nc(=O)n(-c3c(C)ccnc3C(C)C)c3nc(-c4c(O)cccc4F)c(F)cc23)C(C)C1 (configuration not stated) + CN1CCN(c2cc(C(=O)Nc3cc4cc(-c5cnn(C)c5)ccc4cn3)ccn2)CC1,IC50,second compound 0.0316 µM,> 10000 nM
same,IC50,second compound 0.1 µM,> 10000 nM
same,IC50,second compound 0.316 µM,< 31.6 nM
same,IC50,second compound 1 µM,< 31.6 nM
same,IC50,second compound 3.16 µM,< 31.6 nM
same,IC50,second compound 10 µM,< 31.6 nM
same,"viability, T/C","second compound 0.0316 µM, first compound 0.0316 µM",86.4%
same,"viability, T/C","second compound 0.0316 µM, first compound 0.1 µM",98.4%
same,"viability, T/C","second compound 0.0316 µM, first compound 0.316 µM",96.1%
same,"viability, T/C","second compound 0.0316 µM, first compound 1 µM",131%
same,"viability, T/C","second compound 0.0316 µM, first compound 3.16 µM",129%
same,"viability, T/C","second compound 0.0316 µM, first compound 10 µM",125%
same,"viability, T/C","second compound 0.1 µM, first compound 0.0316 µM",81%
same,"viability, T/C","second compound 0.1 µM, first compound 0.1 µM",73.3%
same,"viability, T/C","second compound 0.1 µM, first compound 0.316 µM",82.2%
same,"viability, T/C","second compound 0.1 µM, first compound 1 µM",86.3%
same,"viability, T/C","second compound 0.1 µM, first compound 3.16 µM",93.9%
same,"viability, T/C","second compound 0.1 µM, first compound 10 µM",109%
same,"viability, T/C","second compound 0.316 µM, first compound 0.0316 µM",16.9%
same,"viability, T/C","second compound 0.316 µM, first compound 0.1 µM",16.9%
same,"viability, T/C","second compound 0.316 µM, first compound 0.316 µM",21.9%
same,"viability, T/C","second compound 0.316 µM, first compound 1 µM",11.1%
same,"viability, T/C","second compound 0.316 µM, first compound 3.16 µM",17.8%
same,"viability, T/C","second compound 0.316 µM, first compound 10 µM",12.2%
same,"viability, T/C","second compound 1 µM, first compound 0.0316 µM",0.5%
same,"viability, T/C","second compound 1 µM, first compound 0.1 µM",0.38%
same,"viability, T/C","second compound 1 µM, first compound 0.316 µM",0.54%
same,"viability, T/C","second compound 1 µM, first compound 1 µM",2.26%
same,"viability, T/C","second compound 1 µM, first compound 3.16 µM",0.49%
same,"viability, T/C","second compound 1 µM, first compound 10 µM",0.41%
same,"viability, T/C","second compound 3.16 µM, first compound 0.0316 µM",0.17%
same,"viability, T/C","second compound 3.16 µM, first compound 0.1 µM",2.77%
same,"viability, T/C","second compound 3.16 µM, first compound 0.316 µM",1.11%
same,"viability, T/C","second compound 3.16 µM, first compound 1 µM",0.43%
same,"viability, T/C","second compound 3.16 µM, first compound 3.16 µM",0.45%
same,"viability, T/C","second compound 3.16 µM, first compound 10 µM",0.24%
same,"viability, T/C","second compound 10 µM, first compound 0.0316 µM",0.68%
same,"viability, T/C","second compound 10 µM, first compound 0.1 µM",0.21%
same,"viability, T/C","second compound 10 µM, first compound 0.316 µM",1.43%
same,"viability, T/C","second compound 10 µM, first compound 1 µM",0.18%
same,"viability, T/C","second compound 10 µM, first compound 3.16 µM",0.17%
same,"viability, T/C","second compound 10 µM, first compound 10 µM",3.04%
